Measurements reported in US20260109715A1, “IMIDAZOPYRIDINE DERIVATIVES WITH BICYCLIC STRUCTURE” (PUBLIC UNIVERSITY CORPORATION YOKOHAMA CITY UNIVERSITY, priority 2022, published 2026).
Where two headings read alike, the source gives them in different places.

Key:
[1] = test system: Snhg1 transcript (NMD target gene) in EMT6 murine breast cancer cell line; assay: Measurement of NMD inhibitory activity in cells (increase in Snhg1 transcript, real-time PCR); design: species or system mouse; settings: 6 hours treatment, concentration giving 1/2 of maximum Snhg1 fold change of positive control, read-out: Test Example 2 Cell-based Snhg1 EC50
Outline: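 EMT6 cells treated with serially diluted compound (2% DMSO final) for 6 h; Snhg1 transcript quantified by real-time PCR (ΔΔCT, Tbp endogenous control, untreated wells set to 1). EC50 taken as concentration giving half the maximum fold change of a known NMD inhibitor positive control.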

[2] = test system: Snhg1 transcript in tumor tissues of mice subcutaneously implanted with EMT6 murine breast cancer cell line; assay: Evaluation of NMD inhibitory activity in vivo (Snhg1 transcript in EMT6 tumor tissue after oral administration); settings: 6 hours after administration, BALB/c mice
Protocol: The NMD inhibitory activity of a compound of the present invention or a pharmaceutically acceptable salt thereof in vivo can be measured, for example, by the method described below. Using mice subcutaneously implanted with EMT6 murine breast cancer cell line, tumor tissues 6 hours after oral administration of a test substance are excised, and the increase in Snhg1 transcript is quantified as an indicator of NMD inhibition in the tumor, in the same manner as in the in vitro method.
In this test, NMD inhibitory activity in tumor tissues was evaluated when a test substance was orally administered to mice subcutaneously implanted with EMT6 murine breast cancer cell line. As an indicator of NMD inhibitory activity, the increase in the transcript of Snhg1, an NMD target gene, was quantified. First, BALB/c mice were subcutaneously implanted with EMT6 cells (ATCC), and engraftment was confirmed 7 days later. Six hours after administration of the test substance, mice were euthanized, and the collected tumor tissues were cryopreserved. RNA was extracted from the tumor tissues using the illustra RNAspin Mini RNA Isolation kit (GE Healthcare Life Sciences). After synthesizing cDNA using the High-Capacity cDNA Reverse Transcription Kits (Applied Biosystems, 4368813), the cDNA was mixed with PrimeTime Gene Expression Master Mix (Integrated DNA Technologies) and various probes, and gene expression was quantified by QuantStudio 6 Flex (Thermo Fisher Scientific Inc.). For the probe for the Snhg1 gene, which is an NMD target, Mm.PT.58.44039547 (FAM) (Integrated DNA Technologies) was used, and for the probe for the Gapdh gene, which is an endogenous control, Mm99999915_g2 (VIC-PL) (Applied Biosystems) was used. The relative quantification of Snhg1 transcripts in each sample was calculated by the ΔΔCT method using Gapdh as an endogenous control, and the expression level of Snhg1 in each test substance administration group was calculated by setting the expression level of the Vehicle group (0.5% methylcellulose administration group) to 1.

[3] = target: human SMG1 enzyme (Homo sapiens, UniProt Q96Q15); assay: Measurement of SMG1 kinase activity (ADP-Glo Kinase Assay); type: biochemical; settings: purified human SMG1 enzyme 5 nM, Upf1 peptide substrate, ATP 4 μM; qAC50 synonymous with IC50; read-out: Test Example 1 ADP-Glo IC50
Sequence of human SMG1 enzyme (Q96Q15 whole entry): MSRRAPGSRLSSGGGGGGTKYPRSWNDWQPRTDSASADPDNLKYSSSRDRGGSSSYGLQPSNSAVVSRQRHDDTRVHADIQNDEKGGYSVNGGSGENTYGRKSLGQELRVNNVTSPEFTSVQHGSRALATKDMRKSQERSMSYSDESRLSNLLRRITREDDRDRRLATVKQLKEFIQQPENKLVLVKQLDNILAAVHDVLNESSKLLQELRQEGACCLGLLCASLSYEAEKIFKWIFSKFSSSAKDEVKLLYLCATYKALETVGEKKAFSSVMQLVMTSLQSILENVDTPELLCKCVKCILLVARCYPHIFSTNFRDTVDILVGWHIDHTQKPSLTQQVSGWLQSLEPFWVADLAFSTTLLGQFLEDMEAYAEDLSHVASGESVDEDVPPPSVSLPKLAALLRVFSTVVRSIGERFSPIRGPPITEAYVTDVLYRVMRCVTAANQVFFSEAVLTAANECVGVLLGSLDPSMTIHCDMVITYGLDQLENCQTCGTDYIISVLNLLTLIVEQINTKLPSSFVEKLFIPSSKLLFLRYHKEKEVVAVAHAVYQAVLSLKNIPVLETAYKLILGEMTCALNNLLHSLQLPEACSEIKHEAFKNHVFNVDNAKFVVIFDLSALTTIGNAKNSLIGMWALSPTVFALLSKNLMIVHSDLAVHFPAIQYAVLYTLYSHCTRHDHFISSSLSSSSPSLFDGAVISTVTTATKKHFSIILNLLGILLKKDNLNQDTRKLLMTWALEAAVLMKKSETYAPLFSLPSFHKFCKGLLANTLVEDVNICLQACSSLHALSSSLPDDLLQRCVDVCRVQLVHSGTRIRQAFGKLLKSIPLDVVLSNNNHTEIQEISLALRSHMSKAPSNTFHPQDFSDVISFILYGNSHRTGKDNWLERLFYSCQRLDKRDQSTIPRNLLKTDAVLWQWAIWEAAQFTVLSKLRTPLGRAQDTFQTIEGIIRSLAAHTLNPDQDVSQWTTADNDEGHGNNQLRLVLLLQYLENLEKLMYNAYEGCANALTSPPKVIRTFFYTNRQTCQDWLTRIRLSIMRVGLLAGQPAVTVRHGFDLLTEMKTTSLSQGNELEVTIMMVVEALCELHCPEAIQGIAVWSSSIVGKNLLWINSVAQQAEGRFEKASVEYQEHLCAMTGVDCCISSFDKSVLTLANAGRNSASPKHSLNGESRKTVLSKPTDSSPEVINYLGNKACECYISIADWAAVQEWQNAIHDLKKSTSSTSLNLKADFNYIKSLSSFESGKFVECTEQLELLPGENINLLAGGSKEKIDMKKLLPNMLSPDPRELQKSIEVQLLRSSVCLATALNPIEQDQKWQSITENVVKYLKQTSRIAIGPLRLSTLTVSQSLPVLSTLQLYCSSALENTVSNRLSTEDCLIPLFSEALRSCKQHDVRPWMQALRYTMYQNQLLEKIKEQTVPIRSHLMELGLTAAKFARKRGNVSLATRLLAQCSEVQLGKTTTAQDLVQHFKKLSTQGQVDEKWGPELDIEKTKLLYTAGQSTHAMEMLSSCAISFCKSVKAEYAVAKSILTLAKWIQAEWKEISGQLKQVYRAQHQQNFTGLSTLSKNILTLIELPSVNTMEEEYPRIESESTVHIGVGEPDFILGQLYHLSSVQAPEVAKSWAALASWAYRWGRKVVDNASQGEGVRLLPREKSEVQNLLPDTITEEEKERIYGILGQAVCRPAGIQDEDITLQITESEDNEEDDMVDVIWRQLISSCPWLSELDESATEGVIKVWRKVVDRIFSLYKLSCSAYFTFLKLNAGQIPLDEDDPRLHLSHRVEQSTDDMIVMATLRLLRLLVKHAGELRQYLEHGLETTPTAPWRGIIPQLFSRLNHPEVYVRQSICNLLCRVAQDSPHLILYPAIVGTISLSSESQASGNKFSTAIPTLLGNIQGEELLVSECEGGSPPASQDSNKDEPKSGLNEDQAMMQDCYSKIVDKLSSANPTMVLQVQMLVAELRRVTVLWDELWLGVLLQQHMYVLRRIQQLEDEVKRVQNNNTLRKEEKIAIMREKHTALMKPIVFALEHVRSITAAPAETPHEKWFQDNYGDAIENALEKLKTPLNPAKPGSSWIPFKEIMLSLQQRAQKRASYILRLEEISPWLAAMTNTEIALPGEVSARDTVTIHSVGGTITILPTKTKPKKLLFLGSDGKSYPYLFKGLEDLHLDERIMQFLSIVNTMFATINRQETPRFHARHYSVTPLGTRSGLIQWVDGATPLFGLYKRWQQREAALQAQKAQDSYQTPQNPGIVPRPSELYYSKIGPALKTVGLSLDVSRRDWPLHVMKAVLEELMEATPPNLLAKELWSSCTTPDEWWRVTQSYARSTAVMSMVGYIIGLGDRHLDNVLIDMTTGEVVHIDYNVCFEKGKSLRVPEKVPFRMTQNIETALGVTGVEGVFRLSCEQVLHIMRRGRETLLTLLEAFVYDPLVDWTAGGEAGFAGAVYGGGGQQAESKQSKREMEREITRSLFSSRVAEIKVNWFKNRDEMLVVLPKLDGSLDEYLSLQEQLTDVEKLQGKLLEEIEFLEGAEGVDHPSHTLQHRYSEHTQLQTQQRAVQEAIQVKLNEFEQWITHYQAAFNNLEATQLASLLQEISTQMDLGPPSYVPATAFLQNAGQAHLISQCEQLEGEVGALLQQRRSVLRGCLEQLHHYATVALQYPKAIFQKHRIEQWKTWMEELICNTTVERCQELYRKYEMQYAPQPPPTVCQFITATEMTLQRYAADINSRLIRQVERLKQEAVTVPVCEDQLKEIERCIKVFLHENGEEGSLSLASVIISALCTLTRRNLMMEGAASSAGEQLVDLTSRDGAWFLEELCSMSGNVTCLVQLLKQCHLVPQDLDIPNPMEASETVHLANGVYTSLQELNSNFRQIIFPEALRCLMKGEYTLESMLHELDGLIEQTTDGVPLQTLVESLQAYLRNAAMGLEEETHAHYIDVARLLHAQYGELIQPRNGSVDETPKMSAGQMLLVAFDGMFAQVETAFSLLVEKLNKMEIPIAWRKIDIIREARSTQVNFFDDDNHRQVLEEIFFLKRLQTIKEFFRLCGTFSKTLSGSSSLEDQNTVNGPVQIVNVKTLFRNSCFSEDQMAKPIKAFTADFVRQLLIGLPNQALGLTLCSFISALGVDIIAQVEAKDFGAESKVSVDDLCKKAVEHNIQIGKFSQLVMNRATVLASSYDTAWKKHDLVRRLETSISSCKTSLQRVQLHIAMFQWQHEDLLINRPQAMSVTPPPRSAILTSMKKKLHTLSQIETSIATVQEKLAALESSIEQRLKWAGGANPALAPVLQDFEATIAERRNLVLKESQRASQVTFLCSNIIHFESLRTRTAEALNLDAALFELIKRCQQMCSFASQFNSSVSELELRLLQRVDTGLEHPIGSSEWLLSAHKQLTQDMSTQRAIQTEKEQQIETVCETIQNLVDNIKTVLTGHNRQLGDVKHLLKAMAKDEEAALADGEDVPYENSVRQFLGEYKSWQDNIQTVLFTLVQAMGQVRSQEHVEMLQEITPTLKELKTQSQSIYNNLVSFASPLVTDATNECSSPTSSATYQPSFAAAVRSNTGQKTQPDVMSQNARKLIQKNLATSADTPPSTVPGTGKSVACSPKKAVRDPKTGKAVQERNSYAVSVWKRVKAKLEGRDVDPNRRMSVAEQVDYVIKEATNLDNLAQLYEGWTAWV
Outline: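 ADP-Glo luminescence readout of ADP made by 5 nM human SMG1 acting on 8 μg/mL Upf1 peptide with 4 μM ATP for 60 min at room temperature, after a 15 min enzyme–compound preincubation (1% DMSO; pH 7.5 HEPES, MnCl2). Activity scaled between DMSO and no-enzyme wells; IC50 by four-parameter logistic regression.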

Row | Compound | IC50 [3] [nM] | EC50 ([1]; Mus musculus) [nM] | also measured
1 | 3-(6-chloro-4-methyl-1H-imidazo[4,5-c]pyridin-2-yl)-5-(2-fluoro-6-methoxyphenyl)-1,6-naphthyridin-2(1H)-one methanesulfonate [Example 130] | 1.6 | – | EC50 [1]: 11 nM; Snhg1 fold change ([2]; 10 mg/kg oral): 9.2
2 | C[C@@H](Nc1nc(Cl)cc2[nH]c(-c3cc4c(N5CCC(N(C)C)CC5)nccc4[nH]c3=O)nc12)C(F)(F)F [Example 8, 3-(6-chloro-4-{[(2R)-1,1,1-trifluoropropan-2-yl]amino}-1H-imidazo[4,5-c]pyridin-2-yl)-5-[4-(dimethylamino)piperidin-1-yl]-1,6-naphthyridin-2(1H)-one] | 1.8 | 36 | Snhg1 fold change ([2]; 30 mg/kg oral): 4.1
3 | CC1(C)CC(O)(c2nc(Cl)cc3[nH]c(-c4cc5cnccc5[nH]c4=O)nc23)CCO1 (stereo not shown) [Example 19, 3-[6-chloro-4-(4-hydroxy-2,2-dimethyltetrahydro-2H-pyran-4-yl)-1H-imidazo[4,5-c]pyridin-2-yl]-1,6-naphthyridin-2(1H)-one] | 2.4 | 111 | Snhg1 fold change ([2]; 100 mg/kg oral): 7.5
4 | [2H]C([2H])([2H])Oc1ccccc1-c1nccc2[nH]c(=O)c(-c3nc4c(C)nc(Cl)cc4[nH]3)cc12 [Example 26, 3-(6-chloro-4-methyl-1H-imidazo[4,5-c]pyridin-2-yl)-5-{2-[(^2H3)methyloxy]phenyl}-1,6-naphthyridin-2(1H)-one] | 0.99 | 28 | Snhg1 fold change ([2]; 10 mg/kg oral): 12
5 | O=c1[nH]c2ccnc(-c3ccccc3Cl)c2cc1-c1nc2cnc(Cl)cc2[nH]1 [Example 28, 3-(6-chloro-1H-imidazo[4,5-c]pyridin-2-y1)-5-(2-chlorophenyl)-1,6-naphthyridin-2(1H)-one] | 2 | 78 | Snhg1 fold change ([2]; 25 mg/kg oral): 8.8
6 | Cc1nc(Cl)cc2[nH]c(-c3cc4c(-c5ccccc5Cl)nccc4[nH]c3=O)nc12 [Example 29, 3-(6-chloro-4-methyl-1H-imidazo[4,5-c]pyridin-2-y1)-5-(2-chlorophenyl)-1,6-naphthyridin-2(1H)-one] | 2 | 56 | Snhg1 fold change ([2]; 30 mg/kg oral): 4.6
7 | Cc1nc(Cl)cc2[nH]c(-c3cc4c(-c5c(F)cccc5Cl)nccc4[nH]c3=O)nc12 [Example 31, 5-(2-chloro-6-fluorophenyl)-3-(6-chloro-4-methyl-1H-imidazo[4,5-c]pyridin-2-y1)-1,6-naphthyridin-2(1H)-one] | 1.3 | 34 | Snhg1 fold change ([2]; 10 mg/kg oral): 5.5
8 | Cc1ccccc1-c1nccc2[nH]c(=O)c(-c3nc4cnc(Cl)cc4[nH]3)cc12 [Example 32, 3-(6-chloro-1H-imidazo[4,5-c]pyridin-2-y1)-5-(2-methylpheny1)-1,6-naphthyridin-2(1H)-one] | 2.4 | 77 | Snhg1 fold change ([2]; 50 mg/kg oral): 12
9 | COc1ccccc1-c1nccc2[nH]c(=O)c(-c3nc4cnc(Cl)cc4[nH]3)cc12 [Example 34, 3-(6-chloro-1H-imidazo[4,5-c]pyridin-2-y1)-5-(2-methoxyphenyl)-1,6-naphthyridin-2(1H)-one] | 2.2 | 25 | Snhg1 fold change ([2]; 25 mg/kg oral): 6.2
10 | COc1cccc(F)c1-c1nccc2[nH]c(=O)c(-c3nc4cnc(Cl)cc4[nH]3)cc12 [Example 35, 3-(6-chloro-1H-imidazo[4,5-c]pyridin-2-y1)-5-(2-fluoro-6-methoxyphenyl)-1,6-naphthyridin-2(1H)-one] | 1.4 | 40 | Snhg1 fold change ([2]; 10 mg/kg oral): 4.6
11 | CCc1nc(Cl)cc2[nH]c(-c3cc4c(-c5cc(F)ccc5OC)nccc4[nH]c3=O)nc12 [Example 36, 3-(6-chloro-4-ethyl-1H-imidazo[4,5-c]pyridin-2-yl)-5-(5-fluoro-2-methoxyphenyl)-1,6-naphthyridin-2(1H)-one] | 1.2 | 11 | Snhg1 fold change ([2]; 10 mg/kg oral): 7.5
12 | [2H]C([2H])([2H])Oc1ccccc1-c1nccc2[nH]c(=O)c(-c3nc4c(CC)nc(Cl)cc4[nH]3)cc12 [Example 37, 3-(6-chloro-4-ethyl-1H-imidazo[4,5-c]pyridin-2-yl)-5-{2-[(^2H3)methyloxy]phenyl}-1,6-naphthyridin-2(1H)-one] | 0.36 | 9.4 | Snhg1 fold change ([2]; 10 mg/kg oral): 8.4
13 | [2H]C([2H])([2H])Oc1ccccc1-c1nccc2[nH]c(=O)c(-c3nc4c(C(C)C)nc(Cl)cc4[nH]3)cc12 [Example 38, 3-[6-chloro-4-(propan-2-yl)-1H-imidazo[4,5-c]pyridin-2-yl]-5-{2-[(^2H3)methyloxy]phenyl}-1,6-naphthyridin-2(1H)-one] | 1.7 | 10 | Snhg1 fold change ([2]; 30 mg/kg oral): 9.2
14 | O=C1CCn2cc(cn2)-c2nccc3[nH]c(=O)c(cc23)-c2nc3c(nc(Cl)cc3[nH]2)N2CCCN1CC2 [Example 116, 7-chloro-3,8,10,14,18,19,23,27,34-nonaazaheptacyclo[20.6.2.2^10,14.1^2,5.1^18,21.0^4,9.0^26,30]tetratriacont-1(29),2,4,6,8,19,21(31),22(30),23,25-decaen-15,28-dione] | 1.2 | 38 | –
15 | C[C@@H]1C[C@@H](F)CN1c1nc(Cl)cc2[nH]c(-c3cc4c(C5CCOCC5)nccc4[nH]c3=O)nc12 [Example 119, 3-{6-chloro-4-[(2R,4R)-4-fluoro-2-methylpyrrolidin-1-yl]-1H-imidazo[4,5-c]pyridin-2-yl}-5-(tetrahydro-2H-pyran-4-yl)-1,6-naphthyridin-2(1H)-one methanesulfonate] | 3.4 | 24 | –
16 | C[C@@H]1C[C@H](O)CN1c1nc(Cl)cc2[nH]c(-c3cc4cnccc4[nH]c3=O)nc12 [Example 120, 3-{6-chloro-4-[(2R,4S)-4-hydroxy-2-methylpyrrolidin-1-yl]-1H-imidazo[4,5-c]pyridin-2-yl}-1,6-naphthyridin-2(1H)-one methanesulfonate] | 0.96 | 37 | –
17 | Cc1nccc2[nH]c(=O)c(-c3nc4c(N5C[C@H](O)C[C@H]5C)nc(Cl)cc4[nH]3)cc12 [Example 121, 3-{6-chloro-4-[(2R,4R)-4-hydroxy-2-methylpyrrolidin-1-yl]-1H-imidazo[4,5-c]pyridin-2-yl}-5-methyl-1,6-naphthyridin-2(1H)-one methanesulfonate] | 1.4 | 46 | –
18 | CCc1nccc2[nH]c(=O)c(-c3nc4c(N5CC[C@H](O)[C@H]5C)nc(Cl)cc4[nH]3)cc12 [Example 122, 3-{6-chloro-4-[(2R,3S)-3-hydroxy-2-methylpyrrolidin-1-yl]-1H-imidazo[4,5-c]pyridin-2-yl}-5-ethyl-1,6-naphthyridin-2(1H)-one methanesulfonate] | 2.2 | 28 | –
19 | CS(=O)(=O)O.[2H]C([2H])([2H])Oc1ccccc1-c1nccc2[nH]c(=O)c(-c3nc4c(N[C@H]5CCOC5)nc(Cl)cc4[nH]3)cc12 [Example 134, 3-{6-chloro-4-[(3S)-tetrahydrofuran-3-ylamino]-1H-imidazo[4,5-c]pyridin-2-yl}-5-(2-[(2H3)methyloxy]phenyl)-1,6-naphthyridin-2(1H)-one methanesulfonate] | 1.1 | 18 | –
20 | CCc1nc(Cl)cc2[nH]c(-c3cc4c(-c5ccn(C(F)F)n5)nccc4[nH]c3=O)nc12 [Example 150, 3-(6-chloro-4-ethyl-1H-imidazo[4,5-c]pyridin-2-yl)-5-[1-(difluoromethyl)-1H-pyrazol-3-yl]-1,6-naphthyridin-2(1H)-one methanesulfonate] | 3.6 | 66 | –
21 | CCc1nc(Cl)cc2[nH]c(-c3cc4c(-c5cc(C)n(C)n5)nccc4[nH]c3=O)nc12 [Example 151, 3-(6-chloro-4-ethyl-1H-imidazo[4,5-c]pyridin-2-yl)-5-(1,5-dimethyl-1H-pyrazol-3-yl)-1,6-naphthyridin-2(1H)-one methanesulfonate] | 1.5 | 16 | –
